These results are taken from ChEMBL document CHEMBL1131310 (J Med Chem, 1998).

The structures appear in SMILES notation. pKi: −log10 of the molar value. Values joined by “and” are separate entries in the source; they are usually repeats but may differ in a detail not shown here. Equal entries are not always repeated.

For assay [1], the species on record is Gallus gallus. Kind of assay: The compound was evaluated for neurite outgrowth from chick dorsal root ganglia. It counts as functional.
Assay [2] has as its target Peptidyl-prolyl cis-trans isomerase FKBP1A (Homo sapiens, UniProt P62942). The experiment in a line: The compound was tested for binding affinity against rotamase.

Chain of Peptidyl-prolyl cis-trans isomerase FKBP1A (P62942 whole entry): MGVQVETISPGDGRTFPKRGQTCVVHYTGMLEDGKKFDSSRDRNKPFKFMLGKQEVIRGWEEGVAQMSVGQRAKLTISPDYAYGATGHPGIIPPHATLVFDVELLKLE

`CCC(C)(C)C(=O)C(=O)N1CCC[C@H]1C(=O)OCCCc1ccccc1` came in with an ED50 in assay [1] of 53 nM.
Still for that read-out and setting: the figure for `CCC(C)(C)C(=O)C(=O)N1CCC[C@H]1C(=O)OCCCc1cccnc1` [GPI-1046] is 0.05 nM.
Broadly, the pKi is the negative decadic logarithm of the Ki, by convention in mol/L. For the compound `CCC(C)(C)C(=O)C(=O)N1CCCC[C@H]1C(=O)OCCCc1cccnc1`, in assay [2], the negative logarithm of the Ki (pKi) is 6.78. In addition, the ED50 in assay [1] was determined as 8.5 nM.
In turn, `CCC(C)(C)C(=O)C(=O)N1CCCC[C@H]1C(=O)O[C@H](CCc1ccccc1)c1ccccc1` returned an ED50 in assay [1] of 0.3 nM.
Consider `CCC(C)(C)C(=O)C(=O)N1CCCC[C@H]1C(=O)OCCCc1ccccc1`, for which the pKi in assay [2] was 6.60 and 6.96. In addition, the ED50 in assay [1] is reported as 300 nM.
